Assay results as given in patent US20160184246A1, “TRANSDERMAL DRUG DELIVERY SYSTEMS FOR AGOMELATINE” (Noven Pharmaceuticals, Inc., priority 2014, published 2016).
≈ marks a conversion by molar mass, not a printed value.

Experiments:
[1] = Solubility of agomelatine in water or aqueous isopropanol (IPA); format: physicochemical; conditions: 32° C.
Description: The solubility of agomelatine in water or different concentrations of aqueous isopropanol (IPA) was assessed. As shown in the table below, the solubility of agomelatine in aqueous IPA solutions increased with increasing IPA content. Agomelatine was formulated at its saturation concentration in different concentrations of aqueous IPA and drug flux through human cadaver skin was assessed using a modified Franz-cell apparatus, using 0.1 mL solution per cm^2.

[2] = Pharmacokinetics of oral agomelatine (background); format: in vivo, human; conditions: current commercial oral dosage, humans
Description: Oral dosage forms (tablets) of agomelatine have been approved in Europe under the trade names Valdoxan, Melitor, and Thymanax. Each tablet contains 25 mg agomelatine, prescribed at an initial dose of 1 tablet taken at bedtime, which dose may be increased to 2 tablets (50 mg) as needed. Oral agomelatine is well absorbed (although greater in women than in men), however, oral bioavailability is only 5% with large variations. The limited bioavailability is believed to be due to heavy first-pass liver metabolism, predominantly by cytochrome CYP1A2 of the P450 isoenzyme system, which results in conjugated metabolites of hydroxylated and demethylated agomelatine. […] The agomelatine oral tablet product produces a human plasma concentration-time pharmacokinetic (PK) profile with a Cmax of about 6 ng/ml, declining thereafter thereafter with a t1/2 of less than 2 hours.

[3] = cited from earlier work
[4] = test system: serum hepatic transaminases; conditions: in vivo; cited from earlier work
[5] = cited from earlier work; remark: listed apart in the source

- solubility ([1]; 0 (water)): 0.4 mg/mL (≈ 1.64 mM)
- solubility ([1]; 25 v/v % aqueous isopropanol, aqueous with cosolvent or surfactant or cyclodextrin, 25 v/v % aqueous IPA): 3 mg/mL (≈ 12.3 mM)
- solubility ([1]; 50 v/v % aqueous isopropanol, aqueous with cosolvent or surfactant or cyclodextrin, 50 v/v % aqueous IPA): 51 mg/mL (≈ 210 mM)
- solubility ([1]; 75 v/v % aqueous isopropanol, aqueous with cosolvent or surfactant or cyclodextrin, 75 v/v % aqueous IPA): 139 mg/mL (≈ 571 mM)
- solubility ([1]; 90 v/v % aqueous isopropanol, aqueous with cosolvent or surfactant or cyclodextrin, 90 v/v % aqueous IPA): > 150 mg/mL
- systemic delivery of agomelatine after hepatic metabolism [2]: 1.25 to 2.5 mg
SMILES: COc1ccc2cccc(CCNC(C)=O)c2c1 [Agomelatine, N-[2-(7-methoxynaphthalen-1-yl)ethyl]acetamide]
- bound to plasma protein ([3]; in vivo): 95%
- plasma half-life (t1/2) ([3]; in vivo): 1 to 2 h
- oral bioavailability ([3]; oral): 5%
- increases in serum hepatic transaminases [4]: as high as three times the upper limit of normal range
- individuals with increases in serum hepatic transaminases [4]: up to 1%
- solubility in water [5]: 0.2 mg/mL (≈ 0.822 mM)
